In patent US7795291B2, “Substituted acid derivatives useful as anti-atherosclerotic, anti-dyslipidemic, anti-diabetic and anti-obesity agents and method” (Bristol-Myers Squibb Company, priority 2006, dated 2010):

Assays:
human PPARα receptor = target: T1, human PPARα receptor (Homo sapiens, UniProt Q07869); assay: GAL4-hPPARα-LBD functional transactivation (luciferase) assay in HEK293 cells; type: cell-based; settings: for Emax: HEK293, maximum activity vs maximal activity of 100 μM fenofibric acid, read-out: PPARα % efficacy
T1 construct: transiently transfecting GAL4-hPPARα-LBD or GAL4-hPPARγ-LBD constructs; GAL4 (fusion partner); expressed in transfected cells; host or cells: HEK293 cells stably expressing 5×GAL4RE-Luciferase
T1 sequence (Q07869 239-466 limits assumed): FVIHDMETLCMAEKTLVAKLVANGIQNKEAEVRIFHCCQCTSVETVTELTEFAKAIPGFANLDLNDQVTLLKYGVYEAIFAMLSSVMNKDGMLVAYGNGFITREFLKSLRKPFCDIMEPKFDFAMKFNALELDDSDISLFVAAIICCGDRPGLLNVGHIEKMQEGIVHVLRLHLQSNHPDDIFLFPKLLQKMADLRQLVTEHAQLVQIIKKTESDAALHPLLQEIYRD
Procedure: (§1) In vitro PPAR agonist functional assays were performed by transiently transfecting GAL4-hPPARα-LBD or GAL4-hPPARγ-LBD constructs respectively into HEK293 (human embryonic kidney) cells stably expressing 5×GAL4RE-Luciferase. Agonist binding results in an increase in luciferase enzyme activity which can be monitored by measuring luminescence upon cell lysing and the addition of luciferin substrate. EC50 values (μM) for PPARα or γ agonist activity were calculated as the concentration of the test ligand (μM) required for the half-maximal activity in HEK293 cells. The efficacy of a test ligand is defined as its maximum activity as compared to the maximal activity of the primary standards, 100 μM fenofibric acid for PPARα and 1 μM rosiglitazone for PPARγ, reported as % efficacy.

human PPARγ receptor = target: T2, human PPARγ receptor (Homo sapiens, UniProt P37231); assay: GAL4-hPPARγ-LBD functional transactivation (luciferase) assay in HEK293 cells; type: cell-based; settings: for Emax: HEK293, maximum activity vs maximal activity of 1 μM rosiglitazone, read-out: PPARγ % efficacy
T2 construct: transiently transfecting GAL4-hPPARα-LBD or GAL4-hPPARγ-LBD constructs; GAL4 (fusion partner); expressed in transfected cells; host or cells: HEK293 cells stably expressing 5×GAL4RE-Luciferase
T2 sequence (P37231 238-503 limits assumed): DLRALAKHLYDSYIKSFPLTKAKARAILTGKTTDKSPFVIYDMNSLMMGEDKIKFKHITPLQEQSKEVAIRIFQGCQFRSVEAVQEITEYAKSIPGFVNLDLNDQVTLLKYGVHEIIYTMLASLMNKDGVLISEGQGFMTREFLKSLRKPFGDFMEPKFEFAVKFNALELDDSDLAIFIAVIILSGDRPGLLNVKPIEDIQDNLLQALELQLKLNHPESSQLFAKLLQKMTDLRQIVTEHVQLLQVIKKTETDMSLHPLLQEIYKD
Procedure: as §1

high fat-fed hamster = assay: High fat-fed hamster model: plasma triglyceride and cholesterol levels; type: in vivo, Golden Syrian Hamster (Mesocricetus auratus); settings: 10 mg/kg orally dosed once daily for 14 days; high fat-fed male hamsters, fasted overnight
Procedure: It is known by one skilled in the art that the compounds of the present invention decrease plasma triglycerides and cholesterol levels at doses ≧10 mg/kg in rodent models of atherosclerosis and dyslipidemia (e.g. the high fat-fed hamster model). The typical administration of said compounds is expected to be between 0.1 to 2,000 mg/day in the clinical setting, and is preferably between 0.5 to 100 mg/day. (Reference for high fat-fed hamster model as an in vivo rodent model for anti-atheroslerosis efficacy: P-R Wang et al., Eur. Journ. of Pharm., 2001, 427, 285-293).
Male Golden Syrian Hamster (Mesocricetus auratus), 7-10 weeks of age and weighing 110-120 grams, were put on a high fat diet (D11953) for two weeks. The high fat diet was formulated by Research Diets, Inc, New Brunswick, N.J. using Purina 5001 as the base diet. Final composition (% by weight) of the diet is: 11.5% coconut oil, 11.5% corn oil, 0.5% cholesterol and 5% fructose. […] Plasma samples were obtained from hamsters fasted overnight (18 hours after last administration of compound) on day 22. The plasma triglyceride and cholesterol levels were determined and the percentage reductions in both parameters of drug-treated animals relative to vehicle-treated animals are shown in Table 2 below.

EC50 (human PPARα receptor; GAL4-hPPARα-LBD in HEK293 cells, 5×GAL4RE-Luciferase) [µM] | Emax (human PPARα receptor) [%] | EC50 (human PPARγ receptor; GAL4-hPPARγ-LBD in HEK293 cells, 5×GAL4RE-Luciferase) [µM] | Emax (human PPARγ receptor) [%] | Structure (SMILES) | % Reduction in Plasma Total Cholesterol vs Vehicle-control group (high fat-fed hamster) [%] | % Reduction in Plasma Triglycerides vs Vehicle-control group (high fat-fed hamster) [%]
0.004 ± 0.001 | 81 | 4.51 ± 1.31 | 67 | COC(=O)N(CC(=O)O)Cc1cc(OCc2nc(-c3ccc(Cl)cc3)oc2C)ccc1F [Compound 2] | −60 | −85
 | 81 |  | 83 | COC(=O)N(CC(=O)O)Cc1cccc(OCc2nc(-c3ccc(Cl)cc3)oc2C)c1 [Compound 1, Glycine, N-[[3-[[2-(4-chlorophenyl)-5-methyl-4-oxazolyl]methoxy]phenyl]methyl]-N-(methoxycarbonyl)-] | −38 | −77
